Here are results for five cell lines from the supplement of paper PMC10307832.

Holding throughout (experiment): relative viability (nuclei count vs DMSO), 5 days (fraction); higher = more cells survive
Compound in experiment [1]: CC1=CC(=NN1)NC2=CC(=NC(=N2)/C=C/C3=CC=CC=C3)N4CCN(CC4)C + COc1cccc2cc(-c3nc([C@H]4CC[C@H](C(=O)O)CC4)n4ncnc(N)c34)[nH]c12 [OSI-027] (partner 0.5 µM)
The gist of the method:
(§1)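 After 5 days of treatment, lung cancer cells in 1536-well plates were fixed and stained in a single step (final 0.05% Triton X-100, 1% formaldehyde, 1 ug/ml Hoechst) and their nuclei counted on 4× images. Treatment had been applied by pin tool the day after seeding as one drug alone or as a fixed anchor-drug dose with five library-drug doses (not always all listed) in √10 steps. Relative viability is the nuclei count of treated wells divided by that of vehicle wells, and values are medians of duplicate plates.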

Compound in the experiment “Bortezomib + Pemetrexed”: CC(C)C[C@H](NC(=O)[C@H](Cc1ccccc1)NC(=O)c1cnccn1)B(O)O [Bortezomib] + Nc1nc2[nH]cc(CCc3ccc(C(=O)N[C@@H](CCC(=O)O)C(=O)O)cc3)c2c(=O)[nH]1 [Pemetrexed] (partner 0.2 µM)
The gist of the method:
as §1

Compound in the experiment “Obatoclax + Crizotinib”: COC1=CC(c2cc3ccccc3[nH]2)=N/C1=C\c1[nH]c(C)cc1C [Obatoclax] + C[C@@H](Oc1cc(-c2cnn(C3CCNCC3)c2)cnc1N)c1c(Cl)ccc(F)c1Cl [Crizotinib] (partner 1 µM)
The method in brief:
as §1

Compound in experiment [2]: CC1=CC(=NN1)NC2=CC(=NC(=N2)/C=C/C3=CC=CC=C3)N4CCN(CC4)C + Cc1cc(Nc2cc(N3CCN(C)CC3)nc(Sc3ccc(NC(=O)C4CC4)cc3)n2)n[nH]1 [Tozasertib] (partner 0.1 µM)
The method in brief: as §1

NCI-H2405: the relative viability stood at 0.619 in experiment [1] (first compound 0.08 µM); 0.571 in experiment [1] (first compound 0.253 µM); 0.651 in experiment [1] (first compound 0.8 µM); 0.373 in experiment [1] (first compound 2.53 µM); 0.209 in experiment [1] (first compound 8 µM); 1.02 with Bortezomib + Pemetrexed (first compound 0.0002 µM). In addition, the relative viability was 0.792 with Bortezomib + Pemetrexed (first compound 0.000632 µM); 1.11 with Bortezomib + Pemetrexed (first compound 0.002 µM); 0.121 with Bortezomib + Pemetrexed (first compound 0.006325 µM); 0.14 in the experiment with Bortezomib + Pemetrexed (first compound 0.02 µM); 0.821 with Obatoclax + Crizotinib (first compound 0.01 µM); 0.832 in the experiment with Obatoclax + Crizotinib (first compound 0.03162 µM). Moreover, the relative viability came to 0.826 with Obatoclax + Crizotinib (first compound 0.3162 µM); 0.867 in the experiment with Obatoclax + Crizotinib (first compound 1 µM); 0.751 in experiment [2] (first compound 0.08 µM); 0.72 in experiment [2] (first compound 0.253 µM); 0.674 in experiment [2] (first compound 0.8 µM); 0.421 in experiment [2] (first compound 2.53 µM). The relative viability in experiment [2] (first compound 8 µM) worked out at 0.185.
Consider NCI-H3122, for which the relative viability was 0.901 in experiment [1] (first compound 0.08 µM); 0.763 in experiment [1] (first compound 0.253 µM); 0.975 in experiment [1] (first compound 0.8 µM); 0.675 in experiment [1] (first compound 2.53 µM); 0.186 in experiment [1] (first compound 8 µM); 0.2 in the experiment with Bortezomib + Pemetrexed (first compound 0.0002 µM). For the same cell line, the relative viability was found to be 0.202 in the experiment with Bortezomib + Pemetrexed (first compound 0.000632 µM); 0.195 with Bortezomib + Pemetrexed (first compound 0.002 µM); 0.171 with Bortezomib + Pemetrexed (first compound 0.006325 µM); 0.117 with Bortezomib + Pemetrexed (first compound 0.02 µM); 0.274 with Obatoclax + Crizotinib (first compound 0.01 µM); 0.28 in the experiment with Obatoclax + Crizotinib (first compound 0.03162 µM). Moreover, the relative viability with Obatoclax + Crizotinib (first compound 0.1 µM) was found to be 0.288; with Obatoclax + Crizotinib (first compound 0.3162 µM), 0.272; in the experiment with Obatoclax + Crizotinib (first compound 1 µM), 0.274; in experiment [2] (first compound 0.08 µM), 0.373; in experiment [2] (first compound 0.253 µM), 0.408; in experiment [2] (first compound 0.8 µM), 0.408. Also, the relative viability is 0.33 in experiment [2] (first compound 2.53 µM) and 0.231 in experiment [2] (first compound 8 µM).
For the cell line PC-3 [JPC-3], the relative viability in experiment [1] (first compound 0.08 µM) was 0.766; in experiment [1] (first compound 0.253 µM), 0.683; in experiment [1] (first compound 0.8 µM) it was 0.83; in experiment [1] (first compound 2.53 µM), 0.67; in experiment [1] (first compound 8 µM) it was 0.59; with Bortezomib + Pemetrexed (first compound 0.0002 µM) it was 1.02. The relative viability was 1.14 with Bortezomib + Pemetrexed (first compound 0.000632 µM); 0.727 with Bortezomib + Pemetrexed (first compound 0.002 µM); 0.196 with Bortezomib + Pemetrexed (first compound 0.006325 µM); 0.184 with Bortezomib + Pemetrexed (first compound 0.02 µM); 0.942 with Obatoclax + Crizotinib (first compound 0.01 µM); 0.892 with Obatoclax + Crizotinib (first compound 0.03162 µM). Besides, the relative viability with Obatoclax + Crizotinib (first compound 0.1 µM) came out at 0.949; with Obatoclax + Crizotinib (first compound 0.3162 µM), 0.984; with Obatoclax + Crizotinib (first compound 1 µM) it was 0.917; in experiment [2] (first compound 0.08 µM) it was 0.886; in experiment [2] (first compound 0.253 µM), 0.899; in experiment [2] (first compound 0.8 µM) it was 0.839. Besides, the results for the relative viability in experiment [2] (first compound 2.53 µM) and in experiment [2] (first compound 8 µM) were 0.74 and 0.461, respectively.
Turning to PC-14, the relative viability in experiment [1] (first compound 0.08 µM) was 0.856; in experiment [1] (first compound 0.253 µM) it was 0.825; in experiment [1] (first compound 0.8 µM) it was 0.802; in experiment [1] (first compound 2.53 µM), 0.0598; in experiment [1] (first compound 8 µM) it was 0.0365; in the experiment with Bortezomib + Pemetrexed (first compound 0.0002 µM), 0.126. The relative viability worked out at 0.142 with Bortezomib + Pemetrexed (first compound 0.000632 µM); 0.166 with Bortezomib + Pemetrexed (first compound 0.002 µM); 0.0636 with Bortezomib + Pemetrexed (first compound 0.006325 µM); 0.078 with Bortezomib + Pemetrexed (first compound 0.02 µM); 0.838 in the experiment with Obatoclax + Crizotinib (first compound 0.01 µM); 0.863 in the experiment with Obatoclax + Crizotinib (first compound 0.03162 µM). Moreover, the relative viability with Obatoclax + Crizotinib (first compound 0.1 µM) was determined as 0.811; with Obatoclax + Crizotinib (first compound 0.3162 µM) it was 0.9; with Obatoclax + Crizotinib (first compound 1 µM) it was 0.54; in experiment [2] (first compound 0.08 µM) it was 0.634; in experiment [2] (first compound 0.253 µM) it was 0.619; in experiment [2] (first compound 0.8 µM), 0.55. The relative viability in experiment [2] (first compound 2.53 µM) was found to be 0.359; in experiment [2] (first compound 8 µM) it was 0.0595.
Turning to RERF-LC-KJ, the relative viability in experiment [1] (first compound 0.08 µM) was 0.532; in experiment [1] (first compound 0.253 µM) it was 0.656; in experiment [1] (first compound 0.8 µM), 0.53; in experiment [1] (first compound 2.53 µM), 0.238; in experiment [1] (first compound 8 µM), 0.179; with Bortezomib + Pemetrexed (first compound 0.0002 µM), 0.673. The relative viability in the experiment with Bortezomib + Pemetrexed (first compound 0.000632 µM) was 0.459; in the experiment with Bortezomib + Pemetrexed (first compound 0.002 µM), 0.464; in the experiment with Bortezomib + Pemetrexed (first compound 0.006325 µM), 0.347; with Bortezomib + Pemetrexed (first compound 0.02 µM), 0.358; with Obatoclax + Crizotinib (first compound 0.01 µM), 0.739; in the experiment with Obatoclax + Crizotinib (first compound 0.03162 µM), 0.821. Further, the relative viability came out at 0.804 with Obatoclax + Crizotinib (first compound 0.1 µM); 0.794 with Obatoclax + Crizotinib (first compound 0.3162 µM); 0.749 in the experiment with Obatoclax + Crizotinib (first compound 1 µM); 0.545 in experiment [2] (first compound 0.08 µM); 0.437 in experiment [2] (first compound 0.253 µM); 0.306 in experiment [2] (first compound 0.8 µM). For the same cell line, the relative viability in experiment [2] (first compound 2.53 µM) is 0.197; in experiment [2] (first compound 8 µM) it was 0.2.
